The values that follow are results of earlier work, collected in patent publication US20230263777A1, “STABLE SOLID FORMULATION OF AZILSARTAN OR PHARMACEUTICALLY ACCEPTABLE SALTS THEREOF” (PIRAMAL PHARMA LIMITED, priority 2020, published 2023).

SMILES strings stand for the structures.

For the compound `CCOc1nc2cccc(C(=O)OCc3oc(=O)oc3C)c2n1Cc1ccc(-c2ccccc2-c2noc(=O)[nH]2)cc1` [Azilsartan kamedoxomil, (5-methyl-2-oxo-2H-1,3-dioxol-4-yl)methyl 2-ethoxy-1-({4-[2-(5-oxo-4,5-dihydro-1,2,4-oxadiazol-3-yl)phenyl]phenyl}methyl)-1H-1,3-benzodiazole-7-carboxylate], where the note is “methanol”, the Solubility in methanol entry is listed as “freely soluble”. Besides, the Solubility in water entry (water) is listed as “practically insoluble”.
